The record followed here is patent US20260125375A1 (Pfizer Inc., priority 2022, published 2026).

Like-named read-outs stand apart in the source and are kept apart here. A value given as a limit tells only on which side of the number the result lay.

The target of one experiment is T1, WT CBL-B (36-427) (Homo sapiens, UniProt Q13191).
T1 construct: N-terminal biotinylated WT CBL-B (36-427) and C-CBL (46-435) were captured on a streptavidin (SA) coated sensor chip
Nature of the experiment: Surface Plasmon Resonance (SPR) assay, binding affinity and kinetics, CBL-B. As to conditions: SPR at 10° C., biotinylated WT CBL-B (36-427) on streptavidin chip; geometric mean; read-out: CBL-B SPR Kd (nM) GMean. The method, boiled down:
(§1)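 SPR kinetics at 10° C, run either single-cycle (0.001–1 μM, 3-fold, 6 points, 120 s on, >5400 s off) or multi-cycle (10 points, 2-fold, top 10 or 100 μM, 90 s on). Proteins were N-biotinylated CBL-B (36-427) and C-CBL (46-435) on SA surfaces, in pH 7.2 HEPES, 2% DMSO.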

For a further experiment, the target named is T2, C-CBL (46-435) (Homo sapiens, UniProt P22681).
T2 construct: N-terminal biotinylated WT CBL-B (36-427) and C-CBL (46-435) were captured on a streptavidin (SA) coated sensor chip
T2 sequence (P22681 46-435): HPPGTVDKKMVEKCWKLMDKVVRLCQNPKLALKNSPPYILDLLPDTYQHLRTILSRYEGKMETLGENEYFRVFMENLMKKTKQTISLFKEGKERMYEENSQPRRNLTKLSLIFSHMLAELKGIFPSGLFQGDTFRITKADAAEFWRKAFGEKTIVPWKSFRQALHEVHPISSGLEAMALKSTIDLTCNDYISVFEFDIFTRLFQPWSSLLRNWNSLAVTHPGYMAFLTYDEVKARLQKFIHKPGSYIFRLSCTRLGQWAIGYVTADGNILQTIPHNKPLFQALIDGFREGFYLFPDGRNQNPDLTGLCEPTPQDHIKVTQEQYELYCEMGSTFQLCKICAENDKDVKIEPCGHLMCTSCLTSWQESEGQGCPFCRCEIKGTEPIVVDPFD
Briefly: Surface Plasmon Resonance (SPR) assay, binding affinity and kinetics, C-CBL. Conditions: SPR at 10° C., biotinylated C-CBL (46-435) on streptavidin chip; geometric mean; read-out: C-CBL SPR Kd (nM) GMean. The method, boiled down: as §1

A further experiment deals with T3, C-CBL (Homo sapiens, UniProt P22681).
T3 construct: endogenous in cells; host or cells: Jurkat HiBit-IL2 reporter cells, CBL-B knocked out by CRISPR
Briefly: Jurkat HiBit-IL2 assay (CBL-B KO), reporter cell line expressing C-CBL only. The class given is cell-based. Conditions: geometric mean, read-out: CBL-B KO EC50 (nM) GMean. The method, boiled down:
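IL-2 secretion was measured by HiBiT luminescence after 1 h compound exposure (0.1% DMSO) and 4 h TCR/CD28 stimulation (final anti-CD3 1 μg/ml, anti-CD28 2 μg/ml, 37 °C) of Jurkat reporters lacking c-CBL or CBL-B. EC50 came from fold-of-effect versus stimulated-only cells, as geometric means across tests.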
Background: The HiBiT peptide binds its large partner to form an active luciferase.

Setting [1] is: CBL-B KO (C-CBL only), anti-CD3/anti-CD28 stimulation 4 hours, Table 16a.
Setting [2] is: CBL-B KO (expressing C-CBL only), Table 16b (further repetition).

T1 sequence (Q13191 36-427): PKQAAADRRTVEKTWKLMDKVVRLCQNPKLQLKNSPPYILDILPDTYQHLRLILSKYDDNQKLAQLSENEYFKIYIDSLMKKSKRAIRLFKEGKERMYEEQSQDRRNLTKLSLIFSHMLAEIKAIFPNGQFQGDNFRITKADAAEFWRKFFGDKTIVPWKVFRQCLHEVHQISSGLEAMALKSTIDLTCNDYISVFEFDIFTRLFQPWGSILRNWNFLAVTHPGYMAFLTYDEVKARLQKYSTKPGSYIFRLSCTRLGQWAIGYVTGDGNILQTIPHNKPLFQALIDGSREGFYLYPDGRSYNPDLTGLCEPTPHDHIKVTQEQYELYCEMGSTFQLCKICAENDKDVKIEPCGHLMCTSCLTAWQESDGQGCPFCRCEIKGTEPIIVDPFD

What is called Kd is the constant that tells how readily two partners part at equilibrium. One may read the EC50 as the concentration at which the effect is half-maximal. In the case of `C[C@H](c1nc(C(F)(F)F)cc2c(-c3cccc(C4(Cc5nncn5C)COC4)c3)n[nH]c12)N1CCC(F)(F)C1` (single isomer, unassigned) [Example D6], the Kd at WT CBL-B (36-427) is 1.8 nM; on C-CBL (46-435) it was 31 nM. Further, the EC50 on C-CBL (setting [1]) is 235 nM.

As for `Cn1cnnc1[C@@H](c1cccc(-c2n[nH]c3c(CN[C@H]4CCC(F)(F)C4)nc(C(F)(F)F)cc23)c1)C1CCC1` (single isomer, unassigned) [Example G1], the dissociation constant (Kd) on WT CBL-B (36-427) was 8 nM; at C-CBL (46-435) it was 60.8 nM. Further, the concentration for a half-maximal effect (EC50) on C-CBL (setting [1]) was determined as 775 nM.

With `C[C@H](NC1CC(F)(F)C1)c1nc(C(F)(F)F)cc2c(-c3cccc([C@H](c4nncn4C)C4CCC4)c3)n[nH]c12` (single isomer, unassigned) [Example D90], the Kd on WT CBL-B (36-427) is 6.5 nM; at C-CBL (46-435), 77.4 nM. Further, the EC50 at C-CBL (setting [2]) is 313 nM.

Consider `C[C@H](c1nc(C(F)(F)F)cc2c(-c3cccc(C4(Cc5nncn5C)COC4)c3)n[nH]c12)N1CC[C@@H](F)C1` (single isomer, unassigned) [Example D10], for which the equilibrium dissociation constant (Kd) turned out to be 2.8 nM at WT CBL-B (36-427) and 42 nM at C-CBL (46-435). Moreover, the concentration for a half-maximal effect (EC50) at C-CBL (setting [1]) came out at 595 nM.

With `CC(c1nc(C(F)(F)F)cc2c(-c3cccc(C4(Cc5nncn5C)COC4)c3)n[nH]c12)N1C[C@@H](F)[C@H](F)C1` (single isomer, unassigned) [Example C25], the figures for the Kd on WT CBL-B (36-427) and on C-CBL (46-435) were 1.8 nM and 31.8 nM, respectively. Further, the EC50 at C-CBL (setting [1]) was 252 nM.

In the case of `C[C@@H](N[C@H]1CCC(F)(F)C1)c1nc(C(F)(F)F)cc2c(-c3cccc(C4(Cc5nncn5C)COC4)c3)n[nH]c12` (single isomer, unassigned) [Example C13], the Kd on WT CBL-B (36-427) was determined as 2.8 nM; at C-CBL (46-435), 11.9 nM. Further, on C-CBL (setting [1]), the EC50 worked out at 63 nM.

For `C[C@@H]1CCCN([C@@H](C)c2nc(C(F)(F)F)cc3c(-c4cccc(C5(Cc6nncn6C)COC5)c4)n[nH]c23)C1` (single isomer, unassigned) [Example D13], the values for the Kd at WT CBL-B (36-427) and on C-CBL (46-435) were 3.5 nM and 51.2 nM, respectively. In addition, the concentration for a half-maximal effect (EC50) at C-CBL (setting [1]) was 539 nM.

Take `CC(NC1CCCC1)c1nc(C(F)(F)F)cc2c(-c3cccc([C@H](c4nncn4C)C4CCC4)c3)n[nH]c12` (stereo partly drawn) [Example C14, N-{(1ξ)-1-[3-{3-[(R)-cyclobutyl(4-methyl-4H-1,2,4-triazol-3-yl)methyl]phenyl}-5-(trifluoromethyl)-1H-pyrazolo[3,4-c]cyclopen-7-yl]ethyl}cyclopentanamine]: the Kd turned out to be 1.4 nM on WT CBL-B (36-427) and 4.1 nM on C-CBL (46-435). The results for the EC50 at C-CBL (setting [1]) and at C-CBL (setting [2]) were 26 nM and 17 nM, respectively.

On to `C[C@H](N[C@@H]1CCC(F)(F)C1)c1nc(C(F)(F)F)cc2c(-c3cccc(C4(Cc5nncn5C)COC4)c3)n[nH]c12` (single isomer, unassigned) [Example C17], for which the Kd on WT CBL-B (36-427) was 1.8 nM; at C-CBL (46-435) it was 28.3 nM. Further, the EC50 on C-CBL (setting [1]) worked out at 196 nM.

Turning to `CC(NC1CNC1)c1nc(C(F)(F)F)cc2c(-c3cccc(C4(Cc5nncn5C)COC4)c3)n[nH]c12` (single isomer, unassigned) [Example C28, N-{(1ξ)-1-[3-(3-{3-[(4-methyl-4H-1,2,4-triazol-3-yl)methyl]oxetan-3-yl}phenyl)-5-(trifluoromethyl)-1H-pyrazolo[3,4-c]pyridin-7-yl]ethyl}azetidin-3-amine], the dissociation constant Kd on WT CBL-B (36-427) stood at 17.3 nM; on C-CBL (46-435), 125 nM. Also, the EC50 on C-CBL (setting [1]) was greater than 5190 nM.

Take `Cn1cnnc1CC1(c2cccc(-c3n[nH]c4cnc(C(F)(F)F)cc34)c2)COC1` [Example B1, 3-(3-(3-((4-methyl-4H-1,2,4-triazol-3-yl)methyl)oxetan-3-yl)phenyl)-5-(trifluoromethyl)-1H-pyrazolo[3,4-c]pyridine]: the equilibrium dissociation constant (Kd) on WT CBL-B (36-427) was determined as 49.5 nM; on C-CBL (46-435), 450 nM. At C-CBL (setting [1]), the EC50 was greater than 9980 nM.

`C[C@H](N[C@@H]1CCC[C@@H]1O)c1nc(C(F)(F)F)cc2c(-c3cccc([C@H](c4nncn4C)C4CCC4)c3)n[nH]c12` (single isomer, unassigned) [Example D15]: the Kd was 2.5 nM at WT CBL-B (36-427) and 6.2 nM on C-CBL (46-435). In addition, the concentration giving a half-maximal response (EC50) at C-CBL (setting [1]) turned out to be 20 nM; on C-CBL (setting [2]) it was 11 nM.

`C[C@H](O)CN[C@@H](C)c1nc(C(F)(F)F)cc2c(-c3cccc([C@H](c4nncn4C)C4CCC4)c3)n[nH]c12` (single isomer, unassigned) [Example D19]: the results for the Kd at WT CBL-B (36-427) and on C-CBL (46-435) were 1.6 nM and 17.2 nM, respectively. The EC50 at C-CBL (setting [1]) worked out at 132 nM; on C-CBL (setting [2]), 157 nM.

Take `CC(c1nc(C(F)(F)F)cc2c(-c3cccc(C4(Cc5nncn5C)COC4)c3)n[nH]c12)N1CCCCC1` (single isomer, unassigned) [Example C21, 3-(3-{3-[(4-methyl-4H-1,2,4-triazol-3-yl)methyl]oxetan-3-yl}phenyl)-7-[(1ξ)-1-(piperidin-1-yl)ethyl]-5-(trifluoromethyl)-1H-pyrazolo[3,4-c]pyridine]: the figures for the Kd at WT CBL-B (36-427) and at C-CBL (46-435) were 13.7 nM and 108 nM, respectively. The EC50 on C-CBL (setting [1]) was found to be 851 nM.

Consider `Cn1cnnc1[C@@H](c1cccc(-c2n[nH]c3c(CN[C@@H]4CCC[C@@H]4O)nc(C(F)(F)F)cc23)c1)C1CCC1` [Example C1, (1S,2R)-2-({[3-{3-[(R)-cyclobutyl(4-methyl-4H-1,2,4-triazol-3-yl)methyl]phenyl}-5-(trifluoromethyl)-1H-pyrazolo[3,4-c]pyridin-7-yl]methyl}amino)cyclopentan-1-ol], for which the Kd was 1.2 nM at WT CBL-B (36-427) and 7.6 nM at C-CBL (46-435). In addition, the concentration giving a half-maximal response (EC50) was determined as 275 nM on C-CBL (setting [1]) and 584 nM at C-CBL (setting [2]).

Regarding `C[C@H](N[C@H]1CCC(F)(F)C1)c1nc(C(F)(F)F)cc2c(-c3cccc([C@H](c4nncn4C)C4CCC4)c3)n[nH]c12` [Example C8], the dissociation constant Kd is 2.2 nM at WT CBL-B (36-427) and 5 nM at C-CBL (46-435). Also, the EC50 at C-CBL (setting [1]) was 44 nM.

Consider `C[C@H]1CN([C@@H](C)c2nc(C(F)(F)F)cc3c(-c4cccc(C5(Cc6nncn6C)COC5)c4)n[nH]c23)CCO1` (single isomer, unassigned) [Example D11], for which the Kd at WT CBL-B (36-427) turned out to be 4.2 nM; on C-CBL (46-435), 47.9 nM. Besides, the EC50 on C-CBL (setting [1]) came out at 512 nM.

Regarding `C[C@@H](NC1CC(F)(F)C1)c1nc(C(F)(F)F)cc2c(-c3cccc([C@H](c4nncn4C)C4CCC4)c3)n[nH]c12` (single isomer, unassigned) [Example D91], the figures for the Kd at WT CBL-B (36-427) and at C-CBL (46-435) were 6.3 nM and 35.4 nM, respectively. Moreover, the concentration giving a half-maximal response (EC50) on C-CBL (setting [2]) stood at 238 nM.

For the molecule `CC1CN(Cc2nc(C(F)(F)F)cc3c(-c4cccc(C5(Cc6nncn6C)COC5)c4)n[nH]c23)CCC1(F)F` (single isomer, unassigned) [Example C32, 7-{[(3ξ)-4,4-difluoro-3-methylpiperidin-1-yl]methyl}-3-(3-{3-[(4-methyl-4H-1,2,4-triazol-3-yl)methyl]oxetan-3-yl}phenyl)-5-(trifluoromethyl)-1H-pyrazolo[3,4-c]pyridine], the results for the dissociation constant (Kd) on WT CBL-B (36-427) and at C-CBL (46-435) were 0.8 nM and 42.6 nM, respectively. Besides, the concentration giving a half-maximal response (EC50) came out at 1190 nM on C-CBL (setting [1]) and 110 nM at C-CBL (setting [2]).

With `C[C@H](N[C@H]1CCOC1)c1nc(C(F)(F)F)cc2c(-c3cccc([C@H](c4nncn4C)C4CCC4)c3)n[nH]c12` (single isomer, unassigned) [Example C2], the dissociation constant (Kd) on WT CBL-B (36-427) came out at 2.5 nM; at C-CBL (46-435), 38.8 nM. The EC50 at C-CBL (setting [1]) came out at 641 nM.

On to `C[C@H](N[C@H]1C[C@@H](O)C1)c1nc(C(F)(F)F)cc2c(-c3cccc([C@H](c4nncn4C)C4CCC4)c3)n[nH]c12` (single isomer, unassigned) [Example C36], for which the equilibrium dissociation constant (Kd) at WT CBL-B (36-427) came to 2 nM; on C-CBL (46-435), 17.9 nM. In addition, the values for the EC50 on C-CBL (setting [1]) and at C-CBL (setting [2]) were 173 nM and 160 nM, respectively.

`Cn1cnnc1[C@@H](c1cccc(-c2n[nH]c3c(CN[C@H]4CCC[C@@H]4O)nc(C(F)(F)F)cc23)c1)C1CCC1` [Example C4, (1S,2S)-2-({[3-{3-[(R)-cyclobutyl(4-methyl-4H-1,2,4-triazol-3-yl)methyl]phenyl}-5-(trifluoromethyl)-1H-pyrazolo[3,4-c]pyridin-7-yl]methyl}amino)cyclopentan-1-ol]: the Kd was 2.1 nM on WT CBL-B (36-427) and 49.9 nM at C-CBL (46-435). The concentration giving a half-maximal response (EC50) on C-CBL (setting [1]) was found to be 1050 nM.
